Where a SMILES comes first, the peptide text is derived from it. Bridges are numbered along the chain shown (N, C = ends). [ ]: non-standard residue; d: D form. The star is where a group is joined. Threoninol(2S,3R) = C[C@@H](O)[C@H](CO)N*
Experiments:
[1] = biological target: T1, Calcitonin receptor (Homo sapiens, UniProt P30988); type: cell membranes, Membrane; conditions: t47d; note: in other assays of this panel Not Active means under 50% inhibition at 10 µM
T1 sequence (P30988 whole entry): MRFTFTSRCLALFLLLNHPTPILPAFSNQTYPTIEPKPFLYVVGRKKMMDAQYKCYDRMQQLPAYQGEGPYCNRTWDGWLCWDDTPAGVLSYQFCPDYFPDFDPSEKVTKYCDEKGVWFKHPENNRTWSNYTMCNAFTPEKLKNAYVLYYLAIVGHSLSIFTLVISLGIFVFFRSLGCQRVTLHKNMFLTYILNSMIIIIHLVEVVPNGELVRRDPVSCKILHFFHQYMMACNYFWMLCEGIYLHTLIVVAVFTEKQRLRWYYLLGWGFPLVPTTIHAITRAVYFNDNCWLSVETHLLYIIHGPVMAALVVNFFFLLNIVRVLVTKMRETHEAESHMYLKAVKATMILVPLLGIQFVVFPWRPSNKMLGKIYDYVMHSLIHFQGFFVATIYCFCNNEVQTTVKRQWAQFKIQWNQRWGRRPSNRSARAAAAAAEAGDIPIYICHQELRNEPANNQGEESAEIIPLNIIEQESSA

[2] = biological target: T2, C-C chemokine receptor type 4 (Homo sapiens, UniProt P51679); type: cell membranes, Membrane; conditions: chem-1; note: in other assays of this panel Not Active means under 50% inhibition at 10 µM
T2 sequence (P51679 whole entry): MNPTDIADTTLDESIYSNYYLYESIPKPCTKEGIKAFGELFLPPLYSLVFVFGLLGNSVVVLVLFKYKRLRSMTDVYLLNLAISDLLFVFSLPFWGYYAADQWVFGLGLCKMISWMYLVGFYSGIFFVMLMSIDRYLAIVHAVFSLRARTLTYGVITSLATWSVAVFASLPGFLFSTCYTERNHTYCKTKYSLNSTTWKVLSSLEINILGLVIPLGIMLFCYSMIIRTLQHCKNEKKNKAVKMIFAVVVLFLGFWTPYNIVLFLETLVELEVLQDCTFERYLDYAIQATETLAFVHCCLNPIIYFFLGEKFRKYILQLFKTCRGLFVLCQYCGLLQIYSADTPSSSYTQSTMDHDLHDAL

[3] = biological target: T3, Cholecystokinin receptor type A (Homo sapiens, UniProt P32238); type: cell membranes, Membrane; conditions: 1321-n1; note: in other assays of this panel Not Active means under 50% inhibition at 10 µM
T3 sequence (P32238 whole entry): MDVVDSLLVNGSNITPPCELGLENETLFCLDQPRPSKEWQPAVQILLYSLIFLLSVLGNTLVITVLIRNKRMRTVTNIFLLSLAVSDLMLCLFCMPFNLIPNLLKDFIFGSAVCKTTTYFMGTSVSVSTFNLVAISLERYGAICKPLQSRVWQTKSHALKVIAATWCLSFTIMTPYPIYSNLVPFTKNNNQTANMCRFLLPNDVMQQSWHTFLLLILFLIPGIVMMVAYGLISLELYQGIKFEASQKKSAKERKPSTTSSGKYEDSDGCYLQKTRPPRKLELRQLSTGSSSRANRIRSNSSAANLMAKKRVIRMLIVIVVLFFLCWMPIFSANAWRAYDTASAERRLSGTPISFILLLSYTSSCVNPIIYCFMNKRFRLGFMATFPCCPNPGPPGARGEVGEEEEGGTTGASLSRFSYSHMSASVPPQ

[4] = biological target: D(1A) dopamine receptor (Homo sapiens, UniProt P21728); test: DRUGMATRIX: Dopamine D1 radioligand binding (ligand: [3H] SCH-23390); type: cell membranes, Membrane; conditions: cho; Not Active = under 50% inhibition at 10 µM
[5] = biological target: Kappa-type opioid receptor (Homo sapiens, UniProt P41145); test: DRUGMATRIX: Opiate kappa (OP2, KOP) radioligand binding (ligand: [3H] Diprenorphine); type: cell membranes, HEK293, Membrane; conditions: hek293; Not Active = under 50% inhibition at 10 µM
[6] = biological target: T4, Caspase-1 (Homo sapiens, UniProt P29466); design: species or system Escherichia coli;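 note: Caspase-1 enzyme inhibition assay with a peptide substrate; in other assays of this panel Not Active means under 50% inhibition at 10 µM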
T4 sequence (P29466 whole entry): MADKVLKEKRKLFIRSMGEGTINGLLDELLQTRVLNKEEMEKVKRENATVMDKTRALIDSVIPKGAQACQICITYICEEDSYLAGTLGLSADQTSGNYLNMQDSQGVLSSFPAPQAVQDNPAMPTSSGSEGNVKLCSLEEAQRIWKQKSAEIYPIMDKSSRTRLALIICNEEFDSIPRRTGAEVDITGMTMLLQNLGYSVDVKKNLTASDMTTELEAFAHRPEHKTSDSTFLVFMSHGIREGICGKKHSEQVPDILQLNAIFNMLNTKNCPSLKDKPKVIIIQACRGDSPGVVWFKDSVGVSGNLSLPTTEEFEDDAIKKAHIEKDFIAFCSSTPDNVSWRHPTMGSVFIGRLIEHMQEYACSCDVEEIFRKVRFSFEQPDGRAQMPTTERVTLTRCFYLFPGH

[7] = biological target: T5, Cytochrome P450 2A6 (Homo sapiens, UniProt P11509); conditions: bti-tn-5b1-4; note: in other assays of this panel Not Active means under 50% inhibition at 10 µM
T5 sequence (P11509 whole entry): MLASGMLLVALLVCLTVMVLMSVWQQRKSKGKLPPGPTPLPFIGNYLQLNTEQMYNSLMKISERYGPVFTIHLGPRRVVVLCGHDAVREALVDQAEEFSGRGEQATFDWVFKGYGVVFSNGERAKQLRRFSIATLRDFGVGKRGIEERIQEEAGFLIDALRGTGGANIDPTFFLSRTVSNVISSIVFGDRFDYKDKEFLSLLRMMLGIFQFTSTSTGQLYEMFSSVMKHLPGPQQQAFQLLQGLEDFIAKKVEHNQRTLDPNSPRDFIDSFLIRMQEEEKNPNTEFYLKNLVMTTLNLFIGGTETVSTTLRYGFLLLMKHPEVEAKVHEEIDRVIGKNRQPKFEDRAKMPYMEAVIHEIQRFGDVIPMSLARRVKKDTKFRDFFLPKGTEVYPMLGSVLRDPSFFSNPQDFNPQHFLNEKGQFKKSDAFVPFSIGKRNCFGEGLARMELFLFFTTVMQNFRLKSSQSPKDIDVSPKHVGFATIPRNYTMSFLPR

[8] = biological target: Cytochrome P450 2C19 (Homo sapiens, UniProt P33261); conditions: bti-tn-5b1-4; note: in other assays of this panel Not Active means under 50% inhibition at 10 µM
Chain of Cytochrome P450 2C19 (P33261 whole entry): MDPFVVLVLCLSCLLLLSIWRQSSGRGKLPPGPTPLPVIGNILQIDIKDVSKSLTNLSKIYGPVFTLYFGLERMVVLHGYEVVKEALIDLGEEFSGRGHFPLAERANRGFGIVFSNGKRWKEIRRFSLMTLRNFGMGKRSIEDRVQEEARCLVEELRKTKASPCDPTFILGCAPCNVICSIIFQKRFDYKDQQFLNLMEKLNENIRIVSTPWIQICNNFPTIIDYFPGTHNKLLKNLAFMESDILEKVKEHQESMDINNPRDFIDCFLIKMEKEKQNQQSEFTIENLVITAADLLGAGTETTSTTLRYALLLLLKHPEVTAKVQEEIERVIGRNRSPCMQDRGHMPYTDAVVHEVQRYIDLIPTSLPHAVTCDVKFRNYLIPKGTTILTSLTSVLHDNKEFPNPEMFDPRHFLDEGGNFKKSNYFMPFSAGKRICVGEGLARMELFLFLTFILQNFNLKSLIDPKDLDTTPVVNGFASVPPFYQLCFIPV

Chain of Kappa-type opioid receptor (P41145 whole entry): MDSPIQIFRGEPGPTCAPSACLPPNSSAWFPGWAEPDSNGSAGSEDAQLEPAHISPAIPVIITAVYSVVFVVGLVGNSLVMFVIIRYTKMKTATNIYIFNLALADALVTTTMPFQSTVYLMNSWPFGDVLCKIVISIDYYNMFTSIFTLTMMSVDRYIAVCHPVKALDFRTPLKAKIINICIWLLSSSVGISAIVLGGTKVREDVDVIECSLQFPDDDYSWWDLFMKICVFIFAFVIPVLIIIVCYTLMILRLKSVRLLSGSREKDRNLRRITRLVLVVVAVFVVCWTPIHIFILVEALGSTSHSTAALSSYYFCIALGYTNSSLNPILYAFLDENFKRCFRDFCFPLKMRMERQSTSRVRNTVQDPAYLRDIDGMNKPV
Chain of D(1A) dopamine receptor (P21728 whole entry): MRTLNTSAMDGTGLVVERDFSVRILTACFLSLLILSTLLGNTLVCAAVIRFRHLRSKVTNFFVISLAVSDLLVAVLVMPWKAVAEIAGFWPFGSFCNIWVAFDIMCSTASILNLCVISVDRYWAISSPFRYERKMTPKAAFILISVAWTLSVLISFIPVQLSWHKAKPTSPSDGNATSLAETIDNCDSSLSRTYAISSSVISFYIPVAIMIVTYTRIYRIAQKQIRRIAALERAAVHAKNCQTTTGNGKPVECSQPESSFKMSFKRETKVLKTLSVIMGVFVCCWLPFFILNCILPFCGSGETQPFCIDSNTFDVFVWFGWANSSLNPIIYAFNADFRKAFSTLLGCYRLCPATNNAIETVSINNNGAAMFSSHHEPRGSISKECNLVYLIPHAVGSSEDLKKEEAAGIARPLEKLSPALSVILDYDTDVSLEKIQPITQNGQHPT

O=C1CC[C@H](N2C(=O)c3ccccc3C2=O)C(=O)N1
Not Active: IC50 [1] | IC50 [2] | IC50 [3] | IC50 [4] | IC50 [5] | IC50 [6] | IC50 [7] | Ki [7] | IC50 [8] | Ki [8]

N=C(Nc1ccccc1)Nc1ccccc1
Not Active: IC50 [1] | IC50 [2] | IC50 [3] | IC50 [4] | IC50 [5] | IC50 [6] | IC50 [7] | Ki [7] | IC50 [8] | Ki [8]

C[C@@H](O)[C@H](CO)NC(=O)[C@@H]1CSSC[C@H](NC(=O)[C@H](N)Cc2ccccc2)C(=O)N[C@@H](Cc2ccccc2)C(=O)N[C@H](Cc2c[nH]c3ccccc23)C(=O)N[C@@H](CCCCN)C(=O)N[C@@H]([C@@H](C)O)C(=O)N1 (H-[dF]CF[dW]KTC-{Threoninol(2S,3R)}; disulfide 2-7)
Not Active: IC50 [1] | IC50 [2] | IC50 [3] | IC50 [4] | IC50 [5] | IC50 [6] | IC50 [7] | Ki [7] | IC50 [8] | Ki [8]

CCCC(=O)Nc1ccc(OCC(O)CNC(C)C)c(C(C)=O)c1 (configuration not stated) [ACEBUTOLOL]
Not Active: IC50 [1] | IC50 [2] | IC50 [3] | IC50 [4] | IC50 [5] | IC50 [6] | IC50 [7] | Ki [7] | IC50 [8] | Ki [8]

COc1cc2c(c3oc(=O)c4c(c13)CCC4=O)[C@@H]1C=CO[C@@H]1O2 [AFLATOXIN]
Not Active: IC50 [1] | Ki [1] | IC50 [2] | Ki [2] | IC50 [3] | Ki [3] | IC50 [4] | Ki [4] | IC50 [5] | Ki [5] | IC50 [6] | Ki [6] | IC50 [7] | Ki [7] | IC50 [8] | Ki [8]

N=C(N)NC(=O)c1nc(Cl)c(N)nc1N [AMILORIDE]
Not Active: IC50 [1] | IC50 [2] | IC50 [3] | IC50 [4] | IC50 [5] | IC50 [6] | IC50 [7] | Ki [7] | IC50 [8] | Ki [8]

Cc1cc(=O)n(-c2ccccc2)n1C [ANTIPYRINE]
Not Active: IC50 [1] | IC50 [2] | IC50 [3] | IC50 [4] | IC50 [5] | IC50 [6] | IC50 [7] | Ki [7] | IC50 [8] | Ki [8]

CN1C(=O)COc2c(C(=O)NC3CN4CCC3CC4)cc(Cl)cc21 (configuration not stated) [AZASETRON]
Not Active: IC50 [1] | IC50 [2] | IC50 [3] | IC50 [4] | IC50 [5] | IC50 [6] | IC50 [7] | Ki [7] | IC50 [8] | Ki [8]

C[C@H]1C[C@H]2[C@@H]3CCC4=CC(=O)C=C[C@]4(C)[C@@]3(Cl)[C@@H](O)C[C@]2(C)[C@@]1(O)C(=O)CO [BECLOMETHASONE]
Not Active: IC50 [1] | IC50 [2] | IC50 [3] | IC50 [4] | IC50 [5] | IC50 [6] | IC50 [7] | Ki [7] | IC50 [8] | Ki [8]

C#C[C@]1(OC(C)=O)CC[C@H]2[C@@H]3CCC4=CC(=O)CC[C@@H]4[C@H]3CC[C@@]21C [NORETHINDRONE ACETATE]
Not Active: IC50 [1] | IC50 [2] | IC50 [3] | IC50 [4] | IC50 [5] | IC50 [6] | IC50 [7] | Ki [7]

CCCCOc1ccc(OCCCN2CCOCC2)cc1 [PRAMOXINE]
Not Active: IC50 [1] | IC50 [2] | IC50 [3] | IC50 [4] | IC50 [5] | IC50 [6] | IC50 [7] | Ki [7]

Reference: ChEMBL document CHEMBL1909046, “DrugMatrix in vitro pharmacology data”
